Test [1] addresses T1, ALDH1A2 (Homo sapiens, UniProt O94788).
T1 construct: His-tag; made in house; host or cells: bacterial cells
T1 sequence (O94788 1-518): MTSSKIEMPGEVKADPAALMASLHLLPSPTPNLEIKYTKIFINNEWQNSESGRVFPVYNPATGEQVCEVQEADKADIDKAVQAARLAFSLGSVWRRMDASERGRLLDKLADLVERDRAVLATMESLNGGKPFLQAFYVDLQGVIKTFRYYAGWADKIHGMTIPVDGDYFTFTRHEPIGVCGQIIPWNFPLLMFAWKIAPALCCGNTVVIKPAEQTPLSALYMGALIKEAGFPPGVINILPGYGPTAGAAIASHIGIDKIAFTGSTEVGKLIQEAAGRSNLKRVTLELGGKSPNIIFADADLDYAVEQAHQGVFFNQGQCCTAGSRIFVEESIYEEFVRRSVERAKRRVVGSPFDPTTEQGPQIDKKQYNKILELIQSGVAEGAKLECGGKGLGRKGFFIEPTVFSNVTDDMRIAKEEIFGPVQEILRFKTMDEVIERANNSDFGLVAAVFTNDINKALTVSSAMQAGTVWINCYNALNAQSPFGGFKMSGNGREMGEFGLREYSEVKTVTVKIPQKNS
The experiment in a line: IC50 evaluation, NADH formation at 340 nm (Tecan SUNRISE). The test is classed as biochemical. The settings on record: 20 mM acetaldehyde, 500 μM NAD+, 15% DMSO, 2.7 μM isoenzyme, read-out: IC50. As to the method: (§1) A common protocol to express and purify all three members of the ALDHIA subfamily has been optimized. Briefly, induced cells, collected by centrifugation, were re-suspended in an appropriate volume of lysis buffer (50 mM Na2HPO4, 300 mM NaCl, 1 mM β-mercaptoethanol, 20 mM imidazole, pH 7.5) added of benzonase nuclease (250 U/μL) and Protease inhibitor cocktail from SIGMA. After ultracentrifugation, the clarified sample was purified by a His-tag affinity chromatography followed by size-exclusion chromatography, using an AKTA FPLC system, at 4° C. To evaluate the purity and homogeneity of the protein, after each purification step, eluted d fractions were analyzed by SDS-PAGE and the protein quantification was always determined by Bradford protein assay.
IC50 evaluation: on a Tecan—SUNRISE, probe 13 was tested in a serial dilution series from 200 μM to 3, 125 μM, against all the three isoenzymes. The recipe of reaction buffer was: 20 mM Tris HCl pH=8, 150 mM KCl, 1 mM B-mercaptoethanol, 500 μM NAD^+, 15% DMSO fixed, 20 mM acetaldehyde and 2.7 μM each isoenzyme. The analysis was conducted measuring the NADH formation, that has a specific absorbance wavelength (340 nm). The test was performed in triplicate with all the three isoenzymes.

Test [2] has as its target T2, ALDH1A3 (Homo sapiens, UniProt P47895).
T2 construct: His-tag; made in house; host or cells: bacterial cells
T2 sequence (P47895 1-512): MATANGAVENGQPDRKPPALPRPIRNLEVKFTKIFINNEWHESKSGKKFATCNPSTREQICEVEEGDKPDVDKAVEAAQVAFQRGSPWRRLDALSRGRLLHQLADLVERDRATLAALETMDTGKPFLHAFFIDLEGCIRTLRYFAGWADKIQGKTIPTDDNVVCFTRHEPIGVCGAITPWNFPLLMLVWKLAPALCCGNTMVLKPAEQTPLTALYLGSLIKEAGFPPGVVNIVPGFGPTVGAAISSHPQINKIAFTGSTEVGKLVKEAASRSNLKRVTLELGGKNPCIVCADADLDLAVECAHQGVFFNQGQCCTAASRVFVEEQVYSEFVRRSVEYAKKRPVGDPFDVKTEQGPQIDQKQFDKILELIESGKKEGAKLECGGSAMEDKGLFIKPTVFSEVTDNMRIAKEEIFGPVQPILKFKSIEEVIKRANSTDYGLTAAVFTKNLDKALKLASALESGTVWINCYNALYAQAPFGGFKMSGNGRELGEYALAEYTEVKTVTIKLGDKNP
Kind of test: Ki evaluation, competitive inhibition vs acetaldehyde, NADH formation. The format is biochemical. The settings on record: competitive vs acetaldehyde 1-20 mM. As to the method:
as §1
Ki evaluation: on a Tecan—SUNRISE, probe 13 was tested as a possible competitive inhibitor, at a variable concentration (200, 100, 50, 10, 1 and 0 μM). In the same plate, different the acetaldehyde was tested at concentrations (1, 2.5, 5, 10, 15 and 20 mM) to describe the competitive mechanism. The recipe of the buffer reaction was the same as described before. The analysis was conducted measuring the NADH formation, that has a specific absorbance wavelength (340 nm). The test was performed in triplicate only with the ALDH1A3.

The test system of test [3] is GL261 cells. Kind of test: Penetration into GL261 cells in vitro. The format is cell-based, mouse. From the text:
We used in vitro and in vivo cells from a mouse high grade glioma cell line, GL261, Briefly, twenty-four 2- to 3-month-old female C57BIC mice were stereotactically implanted under deep general anesthesia (isoflurane supplemented with nitrous oxide) with 1×10^5 GL261 glioblastoma cells. The cells were stereotactically inoculated through a burr hole by a Hamilton syringe into the left striatum (coordinates: 1 mm anteroposterior and 1 mm lateral from bregma, at a depth of 3 mm). All experimental procedures were conducted in accordance with the European Communities Council Directive of 24 Nov. 1986 (86/609 EEC), Recommendation 18/06/2007, Dir. 2010/63/UE, and the Italian law for care and use of experimental animals (DL116/92) and were approved by the Italian Ministry of Health (prot. E669C.15) and the Bioethical Committee of the University of Turin. All animals were housed under a 12-hour light-dark cycle in an environmentally controlled room. All experiments were designed to minimize the numbers of animals used and their discomfort. In each experiment, animals with tumors were allocated to two groups and i.p. injected with probe 14 or probe 13. All drugs were administered intraperitoneally, and treatments were started days 6 after tumor implantation. […] Quantitative and phenotypic evaluations were made on images acquired with a Leica TCS SP5 confocal microscope.

Consider `COc1cc(/C=C/C(=O)/C=C(O)/C=C/c2ccc(OCc3cn(CCOc4ccc(C=O)cc4)nn3)c(OC)c2)ccc1O` [Compound 13], for which the IC50 (commonly the concentration at which inhibition is half-maximal) in test [1] is 131 µM. Also, in test [2], the Ki – broadly, the dissociation constant of the complex between target and ligand, obtained from inhibition or displacement – is 900 nM.

For the compound `CCOC(=O)Cn1cc(COc2ccc(/C=C/C(O)=C/C(=O)/C=C/c3ccc(O)c(OC)c3)cc2OC)nn1` [Compound 14], in test [1], the IC50 turned out to be 92.8 µM. In test [3], the “penetration into cells in vitro” value is “penetrates GL261 cells in vitro”.

The values above are taken from patent US20250281649A1, “PROBE DIRECTED TO ENZYME ALDH1A3 AND USE THEREOF IN THE DIAGNOSIS OF GLIOBLASTOMA” (Universita' Degli Studi Del Piemonte Orientale "A. Avogadro", priority 2021, published 2025).
